# Patent US9630956B2, “Compounds useful as inhibitors of ATR kinase” (Vertex Pharmaceuticals Incorporated, priority 2010, dated 2017)
# pKi: −log10 of the molar value.
# Columns and labels:
# [1] = system: HCT116 colorectal cancer cells; assay: Cisplatin Sensitization Assay (96h cell viability MTS); type: cell-based; conditions: concentration of compound required to reduce the IC50 of Cisplatin alone by at least 3-fold, 96h MTS
# Protocol: Compounds can be screened for their ability to sensitize HCT116 colorectal cancer cells to Cisplatin using a 96h cell viability (MTS) assay. […] Compounds and Cisplatin are then both added simultaneously to the cell media in 2-fold serial dilutions from a top final concentration of 10 μM as a full matrix of concentrations in a final cell volume of 200 μl, and the cells are then incubated at 37° C. in 5% CO2. After 96h, 40 μl of […] (Promega G358a) is added to each well and the cells are incubated for 1 h at 37° C. in 5% CO2.
# full-length ATR = full-length ATR (Homo sapiens (Human), UniProt Q13535); assay: ATR Inhibition Assay (radioactive-phosphate incorporation); type: biochemical; conditions: ATR Inhibition Ki(app); 10 μM ATP, 800 μM target peptide, 5 nM full-length ATR, 25° C.
# Protocol: Compounds were screened for their ability to inhibit ATR kinase using a radioactive-phosphate incorporation assay. Assays were carried out in a mixture of 50 mM Tris/HCl (pH 7.5), 10 mM MgCl2 and 1 mM DTT. Final substrate concentrations were 10 μM [γ-33P]ATP (3 mCi 33P ATP/mmol ATP, Perkin Elmer) and 800 μM target peptide ([…]).
# Assays were carried out at 25° C. in the presence of 5 nM full-length ATR. An assay stock buffer solution was prepared containing all of the reagents listed above, with the exception of ATP and the test compound of interest. 13.5 μL of the stock solution was placed in a 96 well plate followed by addition of 2 μL of DMSO stock containing serial dilutions of the test compound (typically starting from a final concentration of 15 μM with 3-fold serial dilutions) in duplicate (final DMSO concentration 7%). The plate was pre-incubated for 10 minutes at 25° C. and the reaction initiated by addition of 15 μL [γ-33P]ATP (final concentration 10 μM).
# The reaction was stopped after 24 hours by the addition of 30 μL 0.1 M phosphoric acid containing 2 mM ATP. A multiscreen phosphocellulose filter 96-well plate (Millipore, Cat no. MAPHNOB50) was pretreated with 100 μL 0.2M phosphoric acid prior to the addition of 45 μL of the stopped assay mixture. The plate was washed with 5×200 μL 0.2M phosphoric acid. After drying, 100 μL Optiphase ‘SuperMix’ liquid scintillation cocktail (Perkin Elmer) was added to the well prior to scintillation counting (1450 Microbeta Liquid Scintillation Counter, Wallac).
# After removing mean background values for all of the data points, Ki(app) data were calculated from non-linear regression analysis of the initial rate data using the Prism software package (GraphPad Prism version 3.0cx for Macintosh, GraphPad Software, San Diego Calif., USA).
# Below is a chart showing the ATR Inhibition Ki values of compounds of the disclosure.
# Chain of full-length ATR (Q13535 whole entry): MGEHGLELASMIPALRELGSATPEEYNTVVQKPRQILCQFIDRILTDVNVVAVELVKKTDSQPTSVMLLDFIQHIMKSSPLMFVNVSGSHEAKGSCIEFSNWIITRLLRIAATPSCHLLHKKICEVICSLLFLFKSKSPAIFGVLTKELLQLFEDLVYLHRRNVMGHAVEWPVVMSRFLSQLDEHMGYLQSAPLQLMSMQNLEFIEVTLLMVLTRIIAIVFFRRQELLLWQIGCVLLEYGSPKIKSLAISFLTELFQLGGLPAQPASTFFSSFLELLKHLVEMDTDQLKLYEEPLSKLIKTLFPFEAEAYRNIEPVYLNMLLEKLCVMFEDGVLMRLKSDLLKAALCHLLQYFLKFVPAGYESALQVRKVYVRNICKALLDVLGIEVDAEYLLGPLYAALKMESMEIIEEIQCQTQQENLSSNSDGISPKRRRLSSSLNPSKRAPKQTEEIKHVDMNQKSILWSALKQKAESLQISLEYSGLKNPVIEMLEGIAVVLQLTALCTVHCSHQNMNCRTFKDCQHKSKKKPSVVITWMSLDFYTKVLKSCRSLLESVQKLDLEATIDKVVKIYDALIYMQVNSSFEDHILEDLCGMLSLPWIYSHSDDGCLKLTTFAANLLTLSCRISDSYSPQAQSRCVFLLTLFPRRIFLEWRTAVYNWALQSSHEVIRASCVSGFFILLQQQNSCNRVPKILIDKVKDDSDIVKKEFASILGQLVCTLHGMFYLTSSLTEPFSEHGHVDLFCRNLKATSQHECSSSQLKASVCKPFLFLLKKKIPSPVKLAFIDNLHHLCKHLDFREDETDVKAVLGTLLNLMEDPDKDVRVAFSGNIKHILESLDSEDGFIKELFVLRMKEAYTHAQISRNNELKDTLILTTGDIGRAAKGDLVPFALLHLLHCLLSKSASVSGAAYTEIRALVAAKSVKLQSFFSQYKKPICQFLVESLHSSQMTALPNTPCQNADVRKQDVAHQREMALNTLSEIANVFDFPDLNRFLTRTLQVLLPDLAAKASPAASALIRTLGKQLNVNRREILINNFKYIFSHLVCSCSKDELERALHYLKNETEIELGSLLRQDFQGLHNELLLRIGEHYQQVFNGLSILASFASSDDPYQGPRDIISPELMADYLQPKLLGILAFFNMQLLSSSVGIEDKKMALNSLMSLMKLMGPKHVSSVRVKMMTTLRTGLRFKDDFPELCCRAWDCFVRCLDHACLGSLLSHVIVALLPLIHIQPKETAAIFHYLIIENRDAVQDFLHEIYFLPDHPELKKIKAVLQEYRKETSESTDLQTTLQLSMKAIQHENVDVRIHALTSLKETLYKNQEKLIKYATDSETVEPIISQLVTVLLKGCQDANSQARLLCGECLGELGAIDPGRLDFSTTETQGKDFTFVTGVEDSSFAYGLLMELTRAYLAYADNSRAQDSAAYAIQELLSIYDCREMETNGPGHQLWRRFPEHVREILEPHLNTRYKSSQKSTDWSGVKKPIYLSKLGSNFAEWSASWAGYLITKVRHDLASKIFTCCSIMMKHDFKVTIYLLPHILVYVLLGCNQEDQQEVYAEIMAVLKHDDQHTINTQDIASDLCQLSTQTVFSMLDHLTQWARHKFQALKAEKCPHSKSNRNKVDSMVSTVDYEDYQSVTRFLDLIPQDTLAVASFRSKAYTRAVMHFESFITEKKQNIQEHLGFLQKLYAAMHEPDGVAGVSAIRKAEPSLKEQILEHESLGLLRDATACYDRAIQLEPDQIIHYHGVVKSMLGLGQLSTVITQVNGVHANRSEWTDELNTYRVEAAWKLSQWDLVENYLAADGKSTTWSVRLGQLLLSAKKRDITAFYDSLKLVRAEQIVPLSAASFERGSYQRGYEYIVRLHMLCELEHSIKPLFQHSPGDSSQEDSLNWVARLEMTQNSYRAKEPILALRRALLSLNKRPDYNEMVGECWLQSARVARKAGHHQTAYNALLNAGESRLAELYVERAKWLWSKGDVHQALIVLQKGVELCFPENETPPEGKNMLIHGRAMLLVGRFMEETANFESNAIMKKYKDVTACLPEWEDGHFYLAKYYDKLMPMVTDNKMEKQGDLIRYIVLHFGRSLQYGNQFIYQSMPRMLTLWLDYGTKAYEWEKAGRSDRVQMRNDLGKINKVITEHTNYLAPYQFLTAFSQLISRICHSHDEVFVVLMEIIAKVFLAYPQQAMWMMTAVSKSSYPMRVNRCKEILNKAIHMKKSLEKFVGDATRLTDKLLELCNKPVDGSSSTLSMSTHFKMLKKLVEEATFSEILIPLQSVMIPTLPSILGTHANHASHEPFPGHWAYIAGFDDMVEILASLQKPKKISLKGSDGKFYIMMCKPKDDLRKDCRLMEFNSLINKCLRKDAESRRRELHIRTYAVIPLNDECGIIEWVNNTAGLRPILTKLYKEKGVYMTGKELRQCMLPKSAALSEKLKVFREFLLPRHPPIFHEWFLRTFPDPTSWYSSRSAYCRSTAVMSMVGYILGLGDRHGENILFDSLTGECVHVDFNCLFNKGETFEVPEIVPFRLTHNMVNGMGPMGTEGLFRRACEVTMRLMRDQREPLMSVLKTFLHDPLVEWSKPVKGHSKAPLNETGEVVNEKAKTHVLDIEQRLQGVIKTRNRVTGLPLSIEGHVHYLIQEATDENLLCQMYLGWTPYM
pKi (full-length ATR),Compound,CP3 shift [1] [µM]
≥ 8.30,CNCc1ccc(-c2cc(-c3nc(-c4ccc(=O)n(CC5(CO)CC5)c4)cnc3N)on2)cc1 [Compound I-80],0.078
≥ 8.30,CCn1cc(-c2cnc(N)c(-c3cc(-c4ccc(CNC)cc4)no3)n2)ccc1=O [Compound I-81],0.156
≥ 8.30,CCC(C)n1cc(-c2cnc(N)c(-c3cc(-c4ccc(CNC)cc4)no3)n2)ccc1=O (stereo not drawn) [Compound I-82],0.079
≥ 8.30,CCC(CC)n1cc(-c2cnc(N)c(-c3cc(-c4ccc(CNC)cc4)no3)n2)ccc1=O [Compound I-83],0.02
≥ 8.30,CNCc1ccc(-c2cc(-c3nc(-c4ccc(=O)n(CC5CCCCO5)c4)cnc3N)on2)cc1 (stereo not drawn) [Compound I-87],0.078
≥ 8.30,CCc1cc(-c2cnc(N)c(-c3cc(-c4ccc(CNC)cc4)no3)n2)c[nH]c1=O [Compound I-89],0.312
≥ 8.30,CNCc1ccc(-c2cc(-c3nc(-c4c[nH]c(=O)c(Cl)c4)cnc3N)on2)cc1 [Compound I-90],0.625
≥ 8.30,Nc1ncc(-c2ccc(=O)n(C3CCCC3)c2)nc1-c1cc(-c2ccc(CNC3CC3)cc2)no1 [Compound I-92],0.078
≥ 8.30,CCC(CC)n1cc(-c2cnc(N)c(-c3cc(-c4ccc(CNC5CC5)cc4)no3)n2)ccc1=O [Compound I-93],0.02
≥ 8.30,CCC(CC)n1cc(-c2cnc(N)c(-c3cc(-c4cccc(C(C)N)c4)no3)n2)ccc1=O (stereo not drawn) [Compound I-94],0.007
≥ 8.30,CNCc1ccc(-c2cc(-c3nc(-c4ccc(=O)n(CCC5CC5)c4)cnc3N)on2)cc1 [Compound I-96],0.078
≥ 8.30,CC[C@H](C)Cn1cc(-c2cnc(N)c(-c3cc(-c4ccc(CNC)cc4)no3)n2)ccc1=O [Compound I-97],0.078
≥ 8.30,CNCc1ccc(-c2cc(-c3nc(-c4ccc(=O)n(C(C)C(=O)N5CCCC5)c4)cnc3N)on2)cc1 (stereo not drawn) [Compound I-102],0.078
≥ 8.30,CC(N)c1cccc(-c2cc(-c3nc(-c4ccc(=O)n(CC5(C)CC5)c4)cnc3N)on2)c1 (stereo not drawn) [Compound I-105],0.02
≥ 8.30,CC(N)c1cccc(-c2cc(-c3nc(-c4ccc(=O)n(CC5CC5C)c4)cnc3N)on2)c1 (stereo not drawn) [Compound I-106],0.039
≥ 8.30,CNCc1ccc(-c2cc(-c3nc(-c4c[nH]c(=O)c(C5CCCC5)c4)cnc3N)on2)cc1 [Compound I-107],0.039
≥ 8.30,CCCC(CC)c1cc(-c2cnc(N)c(-c3cc(-c4ccc(CNC)cc4)no3)n2)c[nH]c1=O (stereo not drawn) [Compound I-116],0.02

pKi (full-length ATR),Compound,CP3 shift [1] [µM]
≥ 8.30,Nc1ncc(-c2c[nH]c(=O)c(C3CCCC3)c2)nc1-c1cc(-c2ccc(CNC3CC3)cc2)no1 [Compound I-119],0.156
≥ 8.30,CCCC(CC)c1cc(-c2cnc(N)c(-c3cc(-c4ccc(CNC5CC5)cc4)no3)n2)c[nH]c1=O (stereo not drawn) [Compound I-120],0.078
≥ 8.30,CNCc1ccc(-c2cc(-c3nc(-c4ccc(=O)n(CCC5CCCC5)c4)cnc3N)on2)cc1 [Compound I-122],0.078
≥ 8.30,CNCc1ccc(-c2cc(-c3nc(-c4c[nH]c(=O)c(-c5ccccc5)c4)cnc3N)on2)cc1 [Compound I-123],0.078
≥ 8.30,CC1CCC(n2cc(-c3cnc(N)c(-c4cc(-c5cccc(C(C)N)c5)no4)n3)ccc2=O)C1 (stereo not drawn) [Compound I-124],0.039
≥ 8.30,CNCc1ccc(-c2cc(-c3nc(-c4ccc(=O)n(C(C)(C)C#N)c4)cnc3N)on2)cc1 [Compound I-125],0.015
≥ 8.30,CCC(CC)n1cc(-c2cnc(N)c(-c3cc(-c4ccc(CNC5CC(F)(F)C5)cc4)no3)n2)ccc1=O [Compound I-127],0.312
≥ 8.30,CCC(CC)n1cc(-c2cnc(N)c(-c3cc(-c4ccc(CNC5CC5)cc4F)no3)n2)ccc1=O [Compound I-128],0.078
≥ 8.30,CCC(CC)n1cc(-c2cnc(N)c(-c3cc(-c4ccc(CNC)cc4F)no3)n2)ccc1=O [Compound I-129],0.02
≥ 8.30,CCC(CC)n1cc(-c2cnc(N)c(-c3cc(-c4ccc(CN[C@@H]5CCC(F)C5)cc4)no3)n2)ccc1=O (stereo partly drawn) [Compound I-130],0.078
≥ 8.30,CCC(CC)c1cc(-c2cnc(N)c(-c3cc(-c4ccc(CNC)cc4F)no3)n2)c[nH]c1=O [Compound I-132],0.01
≥ 8.30,CCC(N)c1cccc(-c2cc(-c3nc(-c4ccc(=O)n(C(CC)CC)c4)cnc3N)on2)c1 (stereo not drawn) [Compound I-133],0.039
≥ 8.30,CCC(C#N)(CC)n1cc(-c2cnc(N)c(-c3cc(-c4ccc(CNC)cc4)no3)n2)ccc1=O [Compound I-134],0.02
≥ 8.30,CCC(C#N)(CC)n1cc(-c2cnc(N)c(-c3cc(-c4cccc([C@@H](C)N)c4)no3)n2)ccc1=O [Compound I-138],0.01
≥ 8.30,CCC(CC)n1cc(-c2cnc(N)c(-c3cc(-c4ccc(CNC5(C)CC5)cc4)no3)n2)ccc1=O [Compound I-140],0.156
≥ 8.30,CNCc1ccc(-c2cc(-c3nc(-c4ccc(=O)n(C5(C#N)CCCC5)c4)cnc3N)on2)cc1 [Compound I-143],0.01
≥ 8.30,CC(C)(C#N)n1cc(-c2cnc(N)c(-c3cc(-c4ccc(CNC5CCOC5)cc4)no3)n2)ccc1=O (stereo not drawn) [Compound I-145],0.01

Compound,pKi (full-length ATR),CP3 shift [1] [µM]
CCC(CC)n1cc(-c2cnc(N)c(-c3cc(-c4ccc(CNCCF)cc4)no3)n2)ccc1=O [Compound I-126],≥ 8.30,0.625
CCC(CC)n1cc(-c2cnc(N)c(-c3cc(-c4cccc(C(N)CF)c4)no3)n2)ccc1=O (stereo not drawn) [Compound I-131],≥ 8.30,0.02
